US12679878B2, “CRF2 receptor agonists and their use in therapy” (SANOFI, priority 2020, dated 2026)
Like-named read-outs stand apart in the source and are kept apart here. Starred links: 1 amine or outer side, 2 acyl side, 3 side chain; linkers in the order of their positions; H or OH if unused. Non-standard residues stand in square brackets, D forms with d. Residues, ends and D or L forms follow the SMILES beside them. Groups on a side chain read outwards from the residue. *: point of attachment. C18 diacid = O=C(O)CCCCCCCCCCCCCCCCC(=O)*; γGlu = O=C(O)[C@H](CCC(=O)[*:2])N[*:1]; Palmitoyl = CCCCCCCCCCCCCCCC(=O)*; AEEA = NCCOCCOCC(=O)O; Aib = CC(C)(N)C(=O)O

How the values were obtained:
Type in all cases: cell-based
human CRF2α receptor = target: T1, human CRF2α receptor (Homo sapiens, UniProt Q13324); assay: cAMP agonism at human CRF2 α receptor in TeloHEAC cells (Example 7); details: cAMP HTRF, TeloHEAC cells stably expressing human CRF2 α
T1 construct: expressed in transfected cells; host or cells: TeloHEAC
T1 sequence (Q13324 1-411): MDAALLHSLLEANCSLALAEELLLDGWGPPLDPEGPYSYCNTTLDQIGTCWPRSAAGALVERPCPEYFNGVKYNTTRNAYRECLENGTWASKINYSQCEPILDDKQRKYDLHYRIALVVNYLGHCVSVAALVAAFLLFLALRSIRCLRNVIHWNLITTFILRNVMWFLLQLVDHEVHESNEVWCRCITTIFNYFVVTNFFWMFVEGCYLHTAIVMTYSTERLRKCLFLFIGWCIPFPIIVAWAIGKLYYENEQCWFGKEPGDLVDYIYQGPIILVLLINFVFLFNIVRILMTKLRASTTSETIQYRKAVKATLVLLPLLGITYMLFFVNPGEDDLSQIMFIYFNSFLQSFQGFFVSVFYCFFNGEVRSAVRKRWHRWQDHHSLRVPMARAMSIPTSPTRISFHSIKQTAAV
Method in brief: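 Percent activation was referenced to 1000 nM UCN2 (100%), and EC50 values taken as concentrations giving half of maximal response. The read-out was a homogeneous time-resolved fluorescence cAMP kit, fluorescence ratio 665/620 nm. Thawed cells (2000/well) saw compound for 30 min at RT in buffer with 2 mM IBMX and 0%/0.1% HSA.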

rat CRF2R α receptor = assay: cAMP agonism at rat CRF2R α receptor in A7R5 rat aortic smooth muscle cells (Example 8); details: cAMP HTRF, A7R5 rat aortic smooth muscle cell line, 0% HSA
Method in brief: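 Thawed cryopreserved A7R5 cells in HBSS/20 mM HEPES (0 or 0.1% HSA) with 2 mM IBMX, 2000 cells/well, were exposed to compound for 30 min at room temperature. cAMP was read by HTRF (665/620 nm ratio) after 1 h with lysis reagents. Activity was normalised to 1000 nM urocortin 2 as 100%, and EC50 was taken as the concentration giving 50% of maximal activation.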

CRF1R receptor = target: T2, CRF1R receptor (Homo sapiens, UniProt P34998); assay: cAMP activity at anti-target CRF1R, CRF1R-overexpression CHO cell line (Example 9); details: for EC50: 0% HSA
T2 construct: host or cells: CHO-K1 clone 2
T2 sequence (P34998 24-415): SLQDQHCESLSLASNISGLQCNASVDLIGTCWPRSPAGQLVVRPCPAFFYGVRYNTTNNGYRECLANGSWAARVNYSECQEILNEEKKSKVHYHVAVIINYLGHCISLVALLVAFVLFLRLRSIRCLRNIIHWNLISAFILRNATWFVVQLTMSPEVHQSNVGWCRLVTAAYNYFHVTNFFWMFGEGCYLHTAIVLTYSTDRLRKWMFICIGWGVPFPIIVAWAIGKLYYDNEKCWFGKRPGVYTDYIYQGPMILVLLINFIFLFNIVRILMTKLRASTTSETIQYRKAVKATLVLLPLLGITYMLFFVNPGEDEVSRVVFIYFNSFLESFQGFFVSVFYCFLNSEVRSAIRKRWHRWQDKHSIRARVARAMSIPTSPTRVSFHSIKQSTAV
Method in brief: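 cAMP accumulation was read by HTRF after 30 min at room temperature of compound treatment. Cells were cryopreserved CHO cells overexpressing CRF1R, plated at 2000/well in IBMX (2 mM)-containing HBSS/HEPES buffer with 0 or 0.1% HSA. Activity was normalized to 1000 nM UCN2 as 100%.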

[1] = 0% HSA, read-out: EC50 [nM], 0% HSA
[2] = CRF1R-overexpression CHO cell line
[3] = CRF1R-overexpression CHO cell line, read-out: Emax (%)

| SMILES | EC50 (human CRF2α receptor; [1]) [nM] | EC50 (rat CRF2R α receptor) [nM] | EC50 (CRF1R receptor; [2]) [nM] | Emax (CRF1R receptor; [3]) [%] | EC50 (human CRF2α receptor; 0.1% HSA, read-out: EC50 [nM], 0.1% HSA) [nM] | Emax (CRF1R receptor; CHO) [%] |
| --- | --- | --- | --- | --- | --- | --- |
| CCCCCCCCCCCCCCCC(=O)N[C@@H](CCC(=O)NCCCC[C@H](NC(=O)[C@@H](NC(=O)[C@H](CCCCN)NC(=O)[C@@H](NC(=O)[C@@H]1CCCN1C(=O)[C@@H](NC(=O)[C@H](CC(=O)O)NC(=O)[C@H](CC(C)C)NC(=O)[C@H](CO)NC(=O)[C@H](CC(C)C)NC(=O)[C@@H](NC(=O)[C@@H](N)Cc1ccccc1)[C@@H](C)O)C(C)C)[C@@H](C)O)[C@@H](C)CC)C(=O)N[C@@H](CCC(N)=O)C(=O)N[C@@H](CCCCN)C(=O)N[C@@H](CC(C)C)C(=O)N[C@@H](CC(C)C)C(=O)N[C@@H](CCCCN)C(=O)N[C@@H](CCC(N)=O)C(=O)N[C@@H](CCC(=O)O)C(=O)N[C@@H](CCCCN)C(=O)N[C@@H](CCC(N)=O)C(=O)N[C@@H](CCCCN)C(=O)N[C@@H](CCCCN)C(=O)N[C@@H](CCC(N)=O)C(=O)N[C@@H](CCCNC(=N)N)C(=O)N[C@@H](CCC(N)=O)C(=O)N[C@@H](CCCCN)C(=O)N[C@@H](C)C(=O)N[C@@H](CCCCN)C(=O)N[C@H](C(=O)N[C@@H](C)C(=O)N[C@@H](C)C(=O)N[C@@H](CCC(N)=O)C(=O)N[C@H](C(=O)N[C@@H](CC(C)C)C(=O)N[C@@H](C)C(=O)N[C@@H](CCC(N)=O)C(=O)N[C@H](C(N)=O)C(C)C)[C@@H](C)CC)[C@@H](C)O)C(=O)O [compound 8] (H-FTLSLDVPTKIK([γGlu-Palmitoyl])QKLLKQEKQKKQRQKAKTAAQILAQV-NH2; N-terminus assumed) | 0.2 | 0.11 | > 1000 | 16 |  |  |
| CCCCCCCCCCCCCCCC(=O)N[C@@H](CCC(=O)NCCCC[C@H](NC(=O)[C@@H](NC(=O)[C@H](CCCCN)NC(=O)[C@@H](NC(=O)[C@@H]1CCCN1C(=O)[C@@H](NC(=O)[C@H](CC(=O)O)NC(=O)[C@H](CC(C)C)NC(=O)[C@H](CO)NC(=O)[C@H](CC(C)C)NC(=O)[C@@H](NC(=O)[C@@H](N)Cc1ccccc1)[C@@H](C)O)C(C)C)[C@@H](C)O)[C@@H](C)CC)C(=O)N[C@@H](CCC(N)=O)C(=O)N[C@@H](CCCCN)C(=O)N[C@@H](CC(C)C)C(=O)N[C@@H](CC(C)C)C(=O)N[C@@H](CCCCN)C(=O)N[C@@H](CCC(N)=O)C(=O)N[C@@H](CCC(=O)O)C(=O)N[C@@H](CCCCN)C(=O)N[C@@H](CCC(N)=O)C(=O)N[C@@H](CCCCN)C(=O)N[C@@H](CCCCN)C(=O)N[C@@H](CCC(N)=O)C(=O)N[C@@H](CCCNC(=N)N)C(=O)N[C@@H](CCC(N)=O)C(=O)N[C@@H](CCCCN)C(=O)N[C@@H](C)C(=O)N[C@@H](CCCCN)C(=O)N[C@H](C(=O)N[C@@H](CC(N)=O)C(=O)N[C@@H](C)C(=O)N[C@@H](CCC(N)=O)C(=O)N[C@H](C(=O)N[C@@H](CC(C)C)C(=O)N[C@@H](C)C(=O)N[C@@H](CCC(N)=O)C(=O)N[C@H](C(N)=O)C(C)C)[C@@H](C)CC)[C@@H](C)O)C(=O)O [compound 11] (H-FTLSLDVPTKIK([γGlu-Palmitoyl])QKLLKQEKQKKQRQKAKTNAQILAQV-NH2) | 0.02 | 0.01 | > 1000 | 12.7 |  |  |
| CC[C@H](C)[C@H](NC(=O)[C@H](CCC(N)=O)NC(=O)[C@H](CCC(=O)O)NC(=O)[C@H](CC(C)C)NC(=O)[C@H](CC(C)C)NC(=O)[C@H](CCC(N)=O)NC(=O)[C@H](CCCCN)NC(=O)[C@H](CC(N)=O)NC(=O)[C@H](CCCCN)NC(=O)[C@H](CCC(=O)O)NC(=O)[C@H](C)NC(=O)[C@H](CCC(N)=O)NC(=O)[C@H](CCC(N)=O)NC(=O)[C@H](CCCNC(=N)N)NC(=O)[C@H](CCC(=O)O)NC(=O)[C@H](CCCCN)NC(=O)[C@H](CCCCN)NC(=O)[C@H](CCC(N)=O)NC(=O)[C@H](CCCCN)NC(=O)[C@H](CCC(N)=O)NC(=O)[C@H](CCC(N)=O)NC(=O)[C@H](CCCCN)NC(=O)[C@H](Cc1ccccc1)NC(=O)[C@H](CC(C)C)NC(=O)[C@@H](NC(=O)[C@H](CCC(N)=O)NC(=O)[C@H](CCCCNC(=O)COCCOCCNC(=O)COCCOCCNC(=O)CC[C@H](NC(=O)CCCCCCCCCCCCCCCCC(=O)O)C(=O)O)NC(=O)[C@@H](NC(=O)[C@H](CCCCN)NC(=O)[C@@H](NC(=O)[C@@H]1CCCN1C(=O)[C@@H](NC(=O)[C@H](CC(=O)O)NC(=O)[C@H](CC(C)C)NC(=O)[C@H](CO)NC(=O)[C@H](CC(C)C)NC(=O)[C@@H](NC(=O)[C@@H](N)Cc1ccccc1)[C@@H](C)O)C(C)C)[C@@H](C)O)[C@@H](C)CC)[C@@H](C)CC)C(N)=O [compound 13] (H-FTLSLDVPTKIK([AEEA-AEEA-γGlu-C18 diacid])QILFKQQKQKKERQQAEKNKQLLEQI-NH2; N-terminus assumed) | 0.98 | 2.5 |  |  | 64.1 | 4.3 |
| CCCCCCCCCCCCCCCC(=O)N[C@@H](CCC(=O)NCCCC[C@H](NC(=O)[C@@H](NC(=O)[C@H](CCCCN)NC(=O)[C@@H](NC(=O)[C@@H]1CCCN1C(=O)[C@@H](NC(=O)[C@H](CC(=O)O)NC(=O)[C@H](CC(C)C)NC(=O)[C@H](CO)NC(=O)[C@H](CC(C)C)NC(=O)[C@@H](NC(=O)[C@@H](N)Cc1ccccc1)[C@@H](C)O)C(C)C)[C@@H](C)O)[C@@H](C)CC)C(=O)N[C@@H](CCC(N)=O)C(=O)N[C@@H](CCCCN)C(=O)N[C@@H](CC(C)C)C(=O)N[C@@H](Cc1ccccc1)C(=O)N[C@@H](CCCCN)C(=O)N[C@@H](CCC(N)=O)C(=O)N[C@@H](C)C(=O)N[C@@H](CCCCN)C(=O)N[C@@H](CCC(N)=O)C(=O)N[C@@H](CCCCN)C(=O)N[C@@H](CCCCN)C(=O)N[C@@H](CCC(N)=O)C(=O)N[C@@H](CCCNC(=N)N)C(=O)N[C@@H](CCC(N)=O)C(=O)N[C@@H](CCCCN)C(=O)N[C@@H](C)C(=O)N[C@@H](CCCCN)C(=O)N[C@H](C(=O)N[C@@H](CC(N)=O)C(=O)N[C@@H](C)C(=O)N[C@@H](CCC(N)=O)C(=O)N[C@H](C(=O)N[C@@H](CC(C)C)C(=O)N[C@@H](C)C(=O)N[C@@H](CCCNC(=N)N)C(=O)N[C@H](C(N)=O)C(C)C)[C@@H](C)CC)[C@@H](C)O)C(=O)O [compound 15] (H-FTLSLDVPTKIK([γGlu-Palmitoyl])QKLFKQAKQKKQRQKAKTNAQILARV-NH2; N-terminus assumed) | 0.88 | 1.38 | > 1000 | 7.75 |  |  |
| CC[C@H](C)[C@H](NC(C)=O)C(=O)N[C@H](C(=O)N[C@@H](CC(C)C)C(=O)N[C@@H](CO)C(=O)N[C@@H](CC(C)C)C(=O)N[C@@H](CC(=O)O)C(=O)N[C@@H](C(=O)N1CCC[C@H]1C(=O)N[C@H](C(=O)NCC(=O)N[C@@H](CC(C)C)C(=O)N[C@@H](CCCCNC(=O)COCCOCCNC(=O)COCCOCCNC(=O)CC[C@H](NC(=O)CCCCCCCCCCCCCCCCC(=O)O)C(=O)O)C(=O)N[C@@H](CCC(N)=O)C(=O)N[C@H](C(=O)N[C@@H](CC(C)C)C(=O)N[C@@H](CC(C)C)C(=O)N[C@@H](CCC(=O)O)C(=O)N[C@@H](CCC(N)=O)C(=O)N[C@@H](CCC(=O)O)C(=O)N[C@@H](CCCNC(=N)N)C(=O)N[C@@H](CCC(N)=O)C(=O)N[C@@H](CCCCN)C(=O)NC(C)(C)C(=O)N[C@@H](CCC(N)=O)C(=O)N[C@@H](CCCNC(=N)N)C(=O)N[C@@H](CCC(=O)O)C(=O)N[C@@H](CCC(N)=O)C(=O)N[C@@H](C)C(=O)N[C@@H](CCC(=O)O)C(=O)N[C@@H](CCCCN)C(=O)N[C@@H](CC(N)=O)C(=O)N[C@@H](CCC(=O)O)C(=O)N[C@@H](CCC(N)=O)C(=O)N[C@H](C(=O)N[C@@H](CC(C)C)C(=O)N[C@@H](CCC(=O)O)C(=O)N[C@@H](CCC(N)=O)C(=O)N[C@H](C(N)=O)C(C)C)[C@@H](C)CC)[C@@H](C)CC)[C@@H](C)CC)C(C)C)C(C)C [compound 167] (Ac-IVLSLD[dV]PIGLK([AEEA-AEEA-γGlu-C18 diacid])QILLEQERQK[Aib]QREQAEKNEQILEQV-NH2) |  | 76.9 |  | -0.46 |  |  |
